Test: pH of pravastatin sodium crystals kept in normal air, nitrogen or carbon dioxide atmosphere
Type: physicochemical
Protocol: Another observation was that carbon dioxide from the air can irreversibly bind to the active substance and can cause a drop of pH. This is illustrated by the following experiment: 5 g of pravastatin sodium were dissolved in 30 ml of methanol, the pH was adjusted to 10 with 3% aqueous solution of NaOH. 400 ml of ethylacetate were added and the crystals of pravastatin sodium were formed. Crystals were filtered and dried and then put into three different atmospheres: normal air, nitrogen atmosphere and carbon dioxide atmosphere. In normal air and in the nitrogen atmosphere the pH remained the same during a period of 24 hours (normal air: 9.2, nitrogen: 9.5), but in the carbon dioxide atmosphere the pH dropped in the first two minutes from 9.2 to 6.9. After 12 minutes the pH was 6.6 and after 1 hour the pH was 6.5. After that, the pH remained constant. The third observation is that a sufficient stabilization of the active substance is already obtained at a pH of at least 7.0, but a beneficially high stability is effected at a pH of at least 8.0. We have noticed that at a pH below 8 the formation of lactone has occured and also the amount of other impurities has increased. The presence of humidity in the air and a carbon dioxide-rich atmosphere makes the negative effect of a low pH even stronger. This is illustrated by the following experiment: Pravastatin was dissolved in different buffers with the pH in a range between 7 and 11 (F=phosphate, C=citrate, B=borate). The occurrence of pravastatin in lactone form and the formation of different degradation products (impurities) was measured after 1, 5, 13 and 28 days.

pH (carbon dioxide atmosphere, after 12 minutes): 6.6
pH (carbon dioxide atmosphere, after 1 hour): 6.5
pH (carbon dioxide atmosphere, after the first two minutes): 6.9
pH (carbon dioxide atmosphere, starting value): 9.2
pH (crystals in nitrogen atmosphere, remained the same during 24 hours): 9.5
pH (crystals in normal air, remained the same during 24 hours): 9.2
SMILES: CC[C@H](C)C(=O)O[C@H]1C[C@H](O)C=C2C=C[C@H](C)[C@H](CC[C@@H](O)C[C@@H](O)CC(=O)O)[C@H]21 [Pravastatin sodium, pravastatin sodium]

From patent publication US20040072894A1, “Stable pharmaceutical formulation comprising a HMG-CoA reductase inhibitor” (priority 1998, published 2004)
